Activity calls are given as the source filed them. The calls are words filed in the database; no cut-off is given here.
Assays:
Genome polyprotein [1] = molecular target: T1, Genome polyprotein (Coxsackievirus B3 (strain Nancy), UniProt P03313); assay: Inhibition of recombinant Coxsackievirus B3 3C protease expressed in Escherichia coli BL21 (DE3) preincubated for 5 mins followed by addition of NMA-EALFQGPPVK-DNP-rrr-NH2 as substrate measured up to 2 hrs by FRET-based enzyme assay
[2] = Cytotoxicity against human HeLa cells assessed as reduction in cell viability at 10 and 100 uM by CCK8 assay; assay type: toxicity, cell-based
Coxsackievirus B3 = assay: Antiviral activity against Coxsackievirus B3 infected in human HeLa cells at 10 uM measured after 20 to 24 hrs by CCK8 assay; assay type: functional; details: Enterovirus B
Genome polyprotein [3] = molecular target: T1, Genome polyprotein; assay: Inhibition of recombinant Coxsackievirus B3 3C protease expressed in Escherichia coli BL21 (DE3) preincubated for 5 mins followed by addition of NMA-EALFQGPPVK-DNP-rrr-NH2 as substrate measured every 10 mins for 2 hrs by FRET-based enzyme assay
Genome polyprotein [4] = molecular target: T1, Genome polyprotein; assay: Inhibition of recombinant Coxsackievirus B3 C-terminal 6His-tagged 3C protease expressed in Escherichia coli BL21 preincubated for 20 mins followed by addition of fluorogenic peptide as substrate by Cheng-Prusoff equation analysis
[5] = molecular target: Genome polyprotein (Coxsackievirus B3 (strain Nancy)) (UniProt P03313); assay: Non-competitive inhibition of recombinant Coxsackievirus B3 3C protease expressed in Escherichia coli BL21 (DE3) preincubated with protein followed by addition of NMA-EALFQGPPVK-DNP-rrr-NH2 as substrate measured every 5 mins for 2 hrs by Michaelis-Menten plot analysis
Sequence of Genome polyprotein (Coxsackievirus B3 (strain Nancy)) (P03313 whole entry): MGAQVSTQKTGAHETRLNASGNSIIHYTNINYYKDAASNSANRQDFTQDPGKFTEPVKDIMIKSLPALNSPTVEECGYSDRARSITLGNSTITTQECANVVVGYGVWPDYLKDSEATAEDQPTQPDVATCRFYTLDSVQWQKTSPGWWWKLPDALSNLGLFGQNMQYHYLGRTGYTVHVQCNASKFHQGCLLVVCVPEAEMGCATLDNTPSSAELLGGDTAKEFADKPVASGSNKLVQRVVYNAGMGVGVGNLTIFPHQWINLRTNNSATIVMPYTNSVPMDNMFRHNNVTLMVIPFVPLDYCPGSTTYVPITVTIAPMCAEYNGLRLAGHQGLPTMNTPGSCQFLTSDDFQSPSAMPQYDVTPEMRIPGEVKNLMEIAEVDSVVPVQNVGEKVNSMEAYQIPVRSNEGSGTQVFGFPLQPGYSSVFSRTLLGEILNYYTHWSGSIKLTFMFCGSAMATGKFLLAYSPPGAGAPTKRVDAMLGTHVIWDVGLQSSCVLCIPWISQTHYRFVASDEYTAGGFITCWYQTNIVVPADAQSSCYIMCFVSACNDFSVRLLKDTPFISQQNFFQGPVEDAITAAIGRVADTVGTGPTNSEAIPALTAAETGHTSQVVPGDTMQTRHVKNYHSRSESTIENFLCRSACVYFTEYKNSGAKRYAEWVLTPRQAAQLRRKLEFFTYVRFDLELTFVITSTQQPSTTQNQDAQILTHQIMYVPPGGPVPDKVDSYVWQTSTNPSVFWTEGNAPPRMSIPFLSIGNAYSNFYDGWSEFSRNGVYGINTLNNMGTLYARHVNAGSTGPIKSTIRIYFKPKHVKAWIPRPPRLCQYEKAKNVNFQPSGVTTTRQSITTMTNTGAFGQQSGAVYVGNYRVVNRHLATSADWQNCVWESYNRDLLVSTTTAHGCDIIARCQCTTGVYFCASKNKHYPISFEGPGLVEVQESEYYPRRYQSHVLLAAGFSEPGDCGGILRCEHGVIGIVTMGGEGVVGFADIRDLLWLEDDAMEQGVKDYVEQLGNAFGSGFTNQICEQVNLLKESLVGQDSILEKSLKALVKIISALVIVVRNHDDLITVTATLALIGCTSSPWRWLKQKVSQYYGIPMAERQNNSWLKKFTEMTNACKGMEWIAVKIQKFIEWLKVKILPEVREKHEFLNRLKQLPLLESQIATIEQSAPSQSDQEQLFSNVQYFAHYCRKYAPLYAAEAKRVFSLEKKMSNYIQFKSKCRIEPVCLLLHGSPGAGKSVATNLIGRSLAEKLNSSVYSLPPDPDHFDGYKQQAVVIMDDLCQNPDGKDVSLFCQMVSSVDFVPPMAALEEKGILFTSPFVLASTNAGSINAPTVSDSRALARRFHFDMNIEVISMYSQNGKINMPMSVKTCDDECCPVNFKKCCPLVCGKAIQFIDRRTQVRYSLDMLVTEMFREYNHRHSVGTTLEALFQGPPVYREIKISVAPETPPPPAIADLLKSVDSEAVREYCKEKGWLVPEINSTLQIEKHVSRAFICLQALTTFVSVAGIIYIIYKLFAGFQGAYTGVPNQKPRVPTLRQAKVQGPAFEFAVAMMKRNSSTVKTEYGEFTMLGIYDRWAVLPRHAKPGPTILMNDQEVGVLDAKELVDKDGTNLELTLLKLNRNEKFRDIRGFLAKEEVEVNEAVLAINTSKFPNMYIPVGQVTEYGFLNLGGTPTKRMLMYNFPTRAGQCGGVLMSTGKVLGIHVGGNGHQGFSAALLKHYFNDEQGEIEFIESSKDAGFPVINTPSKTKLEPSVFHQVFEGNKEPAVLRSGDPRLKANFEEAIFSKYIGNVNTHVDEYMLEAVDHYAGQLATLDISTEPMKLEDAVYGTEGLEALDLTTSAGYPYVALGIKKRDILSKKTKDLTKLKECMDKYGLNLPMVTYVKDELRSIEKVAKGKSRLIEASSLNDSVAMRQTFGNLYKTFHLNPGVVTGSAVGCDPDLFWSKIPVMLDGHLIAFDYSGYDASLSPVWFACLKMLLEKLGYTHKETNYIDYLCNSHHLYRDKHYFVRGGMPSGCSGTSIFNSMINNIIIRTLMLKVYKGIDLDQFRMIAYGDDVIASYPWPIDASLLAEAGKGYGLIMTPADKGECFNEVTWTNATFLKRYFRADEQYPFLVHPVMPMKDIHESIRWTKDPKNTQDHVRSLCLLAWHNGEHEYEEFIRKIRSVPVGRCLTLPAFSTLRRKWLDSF

Genome polyprotein [6] = molecular target: T1, Genome polyprotein; assay: Competitive inhibition of recombinant Coxsackievirus B3 3C protease expressed in Escherichia coli BL21 (DE3) preincubated with protein followed by addition of NMA-EALFQGPPVK-DNP-rrr-NH2 as substrate measured every 5 mins for 2 hrs by Dixon plot analysis
[7] = molecular target: Genome polyprotein (Coxsackievirus B3 (strain Nancy)) (UniProt P03313); assay: Mixed-type inhibition of recombinant Coxsackievirus B3 3C protease expressed in Escherichia coli BL21 (DE3) preincubated with protein followed by addition of NMA-EALFQGPPVK-DNP-rrr-NH2 as substrate measured every 5 mins for 2 hrs by Lineweaver-Burk plot analysis
[8] = Apparent permeability in MDCK cells at 50 uM and measured after 30 mins by LC-MS/MS analysis; assay type: ADME, cell-based, Canis lupus familiaris; details: dog

T1 sequence (P03313 1541-1723 limits assumed): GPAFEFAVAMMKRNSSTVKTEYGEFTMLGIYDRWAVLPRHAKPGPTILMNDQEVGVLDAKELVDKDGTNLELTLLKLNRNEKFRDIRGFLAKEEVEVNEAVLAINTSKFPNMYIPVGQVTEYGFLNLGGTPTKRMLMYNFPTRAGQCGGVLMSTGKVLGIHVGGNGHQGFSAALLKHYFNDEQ

Compound	IC50 (Genome polyprotein [1]) [nM]	also measured
CS(=O)(=O)c1ccc(C(=O)NNCc2ccc(O)c(O)c2O)cc1	770	
CCCCC(=O)Oc1c(O)ccc(/C=N/NC(=O)c2ccc(O)cc2)c1O	1210	Activity [2]: Non-Toxic; inhibition at 10 µM (Coxsackievirus B3): 42%
O=C(CCc1ccc(F)cc1)N/N=C/c1ccc(O)c(O)c1O	580	
O=C(N/N=C/c1ccc(O)c(O)c1O)c1ccc(Br)cc1	460	
O=C(CCc1ccc(O)cc1)N/N=C/c1ccc(O)c(O)c1O	120	
O=C(CCc1ccc(F)cc1)NNCc1ccc(O)c(O)c1O	200	
O=C(Cc1ccccc1)NNCc1ccc(O)c(O)c1O	410	
O=C(N/N=C/c1cccc(O)c1)c1ccccc1	> 50000	
O=C(CCCCc1ccc(F)cc1)NNCc1ccc(O)c(O)c1O	230	
CS(=O)(=O)c1ccc(/C=N/NC(=O)c2ccccc2)cc1	> 50000	
O=C(CCCc1ccc(F)cc1)N/N=C/c1ccc(O)c(O)c1O	640	
O=C(N/N=C/c1ccc(O)c(O)c1O)c1ccc(F)cc1	870	
NC(CO)C(=O)NNCc1ccc(O)c(O)c1O (stereo not drawn) [BENSERAZIDE]		IC50 (Genome polyprotein [3]): 2400 nM
O=C(Cc1ccc(O)cc1)N/N=C/c1ccc(O)c(O)c1O	180	
O=C(N/N=C/c1ccc(O)cc1O)c1ccccc1	> 50000	
CC(=O)/C=C/[C@H](C[C@@H]1CNCC1=O)NC(=O)[C@H](CC(C)C)NC(=O)[C@H](CNC(=O)C(C)(C)C)NC(=O)OCc1ccccc1		Ki (Genome polyprotein [4]): 800 nM
O=C(N/N=C/c1ccccc1O)c1ccccc1 [SALICYLALDEHYDE BENZOYL HYDRAZONE]	> 50000	
Cc1cc(C(=O)N[C@H](C(=O)N[C@@H](Cc2ccc(F)cc2)C(=O)NNCc2ccc(O)c(O)c2O)C(C)C)no1	230	
Cc1cc(C(=O)N[C@H](C(=O)N[C@@H](Cc2ccc(F)cc2)C(=O)N/N=C/c2ccc(O)c(O)c2O)C(C)C)no1	610	
NC(CO)C(=O)N/N=C/c1ccc(O)c(O)c1O (stereo not drawn)		IC50 (Genome polyprotein [3]): 2700 nM
O=C(Cc1ccc(O)cc1)NNCc1ccc(O)c(O)c1O	110	

Compound	IC50 (Genome polyprotein [1]) [nM]	also measured
O=C(CCCc1ccc(O)cc1)N/N=C/c1ccc(O)c(O)c1O	160	
CCCCC(=O)Oc1c(O)ccc(CNNC(=O)CCCCc2ccc(O)cc2)c1O	870	Activity [2]: Non-Toxic; inhibition at 10 µM (Coxsackievirus B3): 43%
O=C(N/N=C/c1ccc(O)c(O)c1O)c1ccc(O)cc1	320	Activity [2]: Non-Toxic
CS(=O)(=O)c1ccc(C(=O)N/N=C/c2ccc(O)c(O)c2O)cc1	890	
O=C(NNCc1ccc(O)c(O)c1O)c1ccc(Cl)cc1	430	
O=C(Cc1ccc(F)cc1)N/N=C/c1ccc(O)c(O)c1O	660	
O=C(CCCCc1ccccc1)NNCc1ccc(O)c(O)c1O	190	
O=C(N/N=C/c1cc(O)cc(O)c1)c1ccccc1	> 50000	
O=C(NNCc1ccc(O)c(O)c1O)c1ccc(O)cc1	170	Activity [2]: Non-Toxic
O=C(NNCc1c(O)cc(O)cc1O)c1ccccc1	770	
O=C(N/N=C/c1ccc(O)cc1)c1ccccc1	> 50000	
O=C(CCCCc1ccccc1)N/N=C/c1ccc(O)c(O)c1O	440	
O=C(NNCc1ccc(O)c(O)c1O)c1ccc(Br)cc1	210	
O=C(CCCCc1ccc(F)cc1)N/N=C/c1ccc(O)c(O)c1O	470	
O=C(CCc1ccc(O)cc1)NNCc1ccc(O)c(O)c1O	80	
CC(C)(C)OC(=O)NC(Cc1ccc(F)cc1)C(=O)N/N=C/c1ccc(O)c(O)c1O (stereo not drawn)	890	
O=C(N/N=C/c1cc(O)ccc1O)c1ccccc1	5510	
O=C(CCCCc1ccc(O)cc1)NNCc1ccc(O)c(O)c1O	70	inhibition [5]: Dose-dependent effect; Ki (Genome polyprotein [6]): 324 nM; inhibition [7]: Active; Activity [2]: Non-Toxic
O=C(NNCc1ccc(O)c(O)c1O)c1ccc(F)cc1	650	
CCCCC(=O)Oc1c(O)ccc(/C=N/NC(=O)CCCCc2ccc(O)cc2)c1O	970	Papp at 0.5 h, 50 µM [8]: 25 ×10⁻⁶ cm/s; Activity [2]: Non-Toxic; inhibition at 10 µM (Coxsackievirus B3): 62%
O=C(Cc1ccccc1)N/N=C/c1ccc(O)c(O)c1O	750	

Compound	IC50 (Genome polyprotein [1]) [nM]	also measured
CS(=O)(=O)c1cccc(/C=N/NC(=O)c2ccccc2)c1	> 50000	
O=C(CCc1ccccc1)NNCc1ccc(O)c(O)c1O	320	
O=C(N/N=C/c1ccccc1)c1ccccc1	> 50000	
O=C(CCCc1ccc(O)cc1)NNCc1ccc(O)c(O)c1O	100	
CC(C)(C)OC(=O)NC(Cc1ccc(O)cc1)C(=O)NNCc1ccc(O)c(O)c1O (stereo not drawn)	270	
O=C(N/N=C/c1cccc(O)c1O)c1ccccc1	> 50000	
O=C(N/N=C/c1ccc(O)c(O)c1)c1ccccc1	> 50000	
O=C(CCCCc1ccc(O)cc1)N/N=C/c1ccc(O)c(O)c1O	110	Papp at 0.5 h, 50 µM [8]: 11 ×10⁻⁶ cm/s; Activity [2]: Non-Toxic
O=C(CCCc1ccc(F)cc1)NNCc1ccc(O)c(O)c1O	400	
CCCCC(=O)Oc1c(O)ccc(CNNC(=O)c2ccc(O)cc2)c1O	1020	inhibition at 10 µM (Coxsackievirus B3): 38%
O=C(Cc1ccc(F)cc1)NNCc1ccc(O)c(O)c1O	340	
O=C(CCc1ccccc1)N/N=C/c1ccc(O)c(O)c1O	690	
CC(C)(C)OC(=O)NC(Cc1ccc(O)cc1)C(=O)N/N=C/c1ccc(O)c(O)c1O (stereo not drawn)	540	
O=C(CCCc1ccccc1)NNCc1ccc(O)c(O)c1O	340	
O=C(N/N=C/c1ccc(O)c(O)c1O)c1ccccc1	970	
O=C(N/N=C/c1c(O)cc(O)cc1O)c1ccccc1	1070	
O=C(CCCc1ccccc1)N/N=C/c1ccc(O)c(O)c1O	710	
CC(C)(C)OC(=O)NC(Cc1ccc(F)cc1)C(=O)NNCc1ccc(O)c(O)c1O (stereo not drawn)	780	
O=C(N/N=C/c1ccc(O)c(O)c1O)c1ccc(Cl)cc1	590	
O=C(NNCc1ccc(O)c(O)c1O)c1ccccc1	650	
